Reference: patent US20260232767A1, “INTERLEUKIN-23 RECEPTOR ANTAGONIST PEPTIDES FOR USE IN THE TREATMENT OF PSORIASIS” (Janssen Pharmaceutica NV, priority 2023, published 2026)

System: subjects with moderate-to-severe plaque psoriasis
Assay: PSSD symptom and sign scores, Example 2
Assay type: in vivo, human
Conditions: for Change from Baseline in PSSD Sign Score, LSMean / Change from Baseline in PSSD Symptom Score, LSMean: MMRM

CC(=O)NCCCC[C@@H]1NC(=O)[C@H](Cc2c[nH]c3c(C)cccc23)NC(=O)[C@H]([C@@H](C)O)NC(=O)[C@H](CC(N)=O)NC(=O)[C@@H](NC(C)=O)C(C)(C)SSC(C)(C)[C@@H](C(=O)N[C@@H](Cc2ccc(OCCN)cc2)C(=O)N[C@@H](Cc2ccc3ccccc3c2)C(=O)NC2(C(=O)N[C@@H](CCC(=O)O)C(=O)N[C@@H](CC(N)=O)C(=O)N[C@@H](Cc3cccnc3)C(=O)N(C)CC(N)=O)CCOCC2)NC1=O [IL-23 receptor antagonist peptide, Ac-[Pen]*-N-T-[W(7-Me)]-[Lys(Ac)]-[Pen]*-Phe[4-(2-aminoethoxy)]-[2-Nal]-[THP]-E-N-[3-Pal]-Sarc-NH2 (*[Pen]-[Pen]* formdisulfidebond)]
Change from Baseline in PSSD Symptom Score, Mean (Week 4, 50 mg QD): −23.6
Change from Baseline in PSSD Symptom Score, Median (Week 4, 50 mg QD): −23.0
Change from Baseline in PSSD Sign Score, LSMean (Week 4, 50 mg QD): −28.0
Change from Baseline in PSSD Symptom Score, LSMean (Week 4, 50 mg QD): −23.4
Change from Baseline in PSSD Sign Score, Mean (Week 4, 100 mg BID): −33.3
Change from Baseline in PSSD Sign Score, Median (Week 4, 100 mg BID): −32.0
Change from Baseline in PSSD Symptom Score, Mean (Week 4, 100 mg BID): −26.1
Change from Baseline in PSSD Symptom Score, Median (Week 4, 100 mg BID): −22.0
Subjects Achieving PSSD Symptom Score 0 (%) (Week 4, 100 mg BID, Baseline Symptom Score ≥1, N=42): (4.8%)
Change from Baseline in PSSD Sign Score, LSMean (Week 4, 100 mg BID): −32.9
Change from Baseline in PSSD Symptom Score, LSMean (Week 4, 100 mg BID): −24.4
Change from Baseline in PSSD Sign Score, Mean (Week 4, 100 mg QD): −31.1
Change from Baseline in PSSD Sign Score, Median (Week 4, 100 mg QD): −32.5
Change from Baseline in PSSD Symptom Score, Mean (Week 4, 100 mg QD): −19.4
Change from Baseline in PSSD Symptom Score, Median (Week 4, 100 mg QD): −17.0
Subjects Achieving PSSD Sign Score 0 (%) (Week 4, 100 mg QD, Baseline Sign Score ≥1, N=43): (2.3%)
Subjects Achieving PSSD Symptom Score 0 (%) (Week 4, 100 mg QD, Baseline Symptom Score ≥1, N=43): (2.3%)
Change from Baseline in PSSD Sign Score, LSMean (Week 4, 100 mg QD): −33.8
Change from Baseline in PSSD Symptom Score, LSMean (Week 4, 100 mg QD): −24.5
Change from Baseline in PSSD Sign Score, Mean (Week 8, 25 mg BID): −33.8
Change from Baseline in PSSD Sign Score, Median (Week 8, 25 mg BID): −38.0
Change from Baseline in PSSD Symptom Score, Mean (Week 8, 25 mg BID): −27.5
Change from Baseline in PSSD Symptom Score, Median (Week 8, 25 mg BID): −22.0
Subjects Achieving PSSD Sign Score 0 (%) (Week 8, 25 mg BID, Baseline Sign Score ≥1, N=41): (2.4%)
Subjects Achieving PSSD Symptom Score 0 (%) (Week 8, 25 mg BID, Baseline Symptom Score ≥1, N=41): (7.3%)
Change from Baseline in PSSD Sign Score, LSMean (Week 8, 25 mg BID): −34.1
Change from Baseline in PSSD Symptom Score, LSMean (Week 8, 25 mg BID): −27.5
Change from Baseline in PSSD Sign Score, Mean (Week 8, 25 mg QD): −33.0
Change from Baseline in PSSD Sign Score, Median (Week 8, 25 mg QD): −40.0
Change from Baseline in PSSD Symptom Score, Mean (Week 8, 25 mg QD): −32.3
Change from Baseline in PSSD Symptom Score, Median (Week 8, 25 mg QD): −32.0
Subjects Achieving PSSD Sign Score 0 (%) (Week 8, 25 mg QD, Baseline Sign Score ≥1, N=43): (4.7%)
Subjects Achieving PSSD Symptom Score 0 (%) (Week 8, 25 mg QD, Baseline Symptom Score ≥1, N=43): (9.3%)
Change from Baseline in PSSD Sign Score, LSMean (Week 8, 25 mg QD): −29.0
Change from Baseline in PSSD Symptom Score, LSMean (Week 8, 25 mg QD): −27.1
Change from Baseline in PSSD Sign Score, Mean (Week 8, 50 mg QD): −39.7
Change from Baseline in PSSD Sign Score, Median (Week 8, 50 mg QD): −40.5
Change from Baseline in PSSD Symptom Score, Mean (Week 8, 50 mg QD): −35.0
Change from Baseline in PSSD Symptom Score, Median (Week 8, 50 mg QD): −36.0
Subjects Achieving PSSD Sign Score 0 (%) (Week 8, 50 mg QD, Baseline Sign Score ≥1, N=43): (7.0%)
Subjects Achieving PSSD Symptom Score 0 (%) (Week 8, 50 mg QD, Baseline Symptom Score ≥1, N=42): (9.5%)
Change from Baseline in PSSD Sign Score, LSMean (Week 8, 50 mg QD): −40.1
Change from Baseline in PSSD Symptom Score, LSMean (Week 8, 50 mg QD): −34.3
Change from Baseline in PSSD Sign Score, Mean (Week 8, 100 mg BID): −48.3
Change from Baseline in PSSD Sign Score, Median (Week 8, 100 mg BID): −52.0
Change from Baseline in PSSD Symptom Score, Mean (Week 8, 100 mg BID): −41.7
Change from Baseline in PSSD Symptom Score, Median (Week 8, 100 mg BID): −42.0
Subjects Achieving PSSD Sign Score 0 (%) (Week 8, 100 mg BID, Baseline Sign Score ≥1, N=42): (9.5%)
Subjects Achieving PSSD Symptom Score 0 (%) (Week 8, 100 mg BID, Baseline Symptom Score ≥1, N=42): (16.7%)
Change from Baseline in PSSD Sign Score, LSMean (Week 8, 100 mg BID): −47.5
Change from Baseline in PSSD Symptom Score, LSMean (Week 8, 100 mg BID): −39.2
Change from Baseline in PSSD Sign Score, Mean (Week 8, 100 mg QD): −40.2
Change from Baseline in PSSD Sign Score, Median (Week 8, 100 mg QD): −43.0
Change from Baseline in PSSD Symptom Score, Mean (Week 8, 100 mg QD): −27.8
Change from Baseline in PSSD Symptom Score, Median (Week 8, 100 mg QD): −26.0
Subjects Achieving PSSD Sign Score 0 (%) (Week 8, 100 mg QD, Baseline Sign Score ≥1, N=43): (7.0%)
Subjects Achieving PSSD Symptom Score 0 (%) (Week 8, 100 mg QD, Baseline Symptom Score ≥1, N=43): (14.0%)
Change from Baseline in PSSD Sign Score, LSMean (Week 8, 100 mg QD): −43.2
Change from Baseline in PSSD Symptom Score, LSMean (Week 8, 100 mg QD): −33.3
Change from Baseline in PSSD Sign Score, Mean (Week 12, 25 mg BID): −38.5
Change from Baseline in PSSD Sign Score, Median (Week 12, 25 mg BID): −40.0
Change from Baseline in PSSD Symptom Score, Mean (Week 12, 25 mg BID): −32.0
Change from Baseline in PSSD Symptom Score, Median (Week 12, 25 mg BID): −28.0
Subjects Achieving PSSD Sign Score 0 (%) (Week 12, 25 mg BID, Baseline Sign Score ≥1, N=41): (7.3%)
Subjects Achieving PSSD Symptom Score 0 (%) (Week 12, 25 mg BID, Baseline Symptom Score ≥1, N=41): (7.3%)
Change from Baseline in PSSD Sign Score, LSMean (Week 12, 25 mg BID): −39.0
Change from Baseline in PSSD Symptom Score, LSMean (Week 12, 25 mg BID): −32.3
Change from Baseline in PSSD Sign Score, Mean (Week 12, 25 mg QD): −34.8
Change from Baseline in PSSD Sign Score, Median (Week 12, 25 mg QD): −40.0
Change from Baseline in PSSD Symptom Score, Mean (Week 12, 25 mg QD): −31.5
Change from Baseline in PSSD Symptom Score, Median (Week 12, 25 mg QD): −34.0
Subjects Achieving PSSD Symptom Score 0 (%) (Week 12, 25 mg QD, Baseline Symptom Score ≥1, N=43): (14.0%)
Change from Baseline in PSSD Sign Score, LSMean (Week 12, 25 mg QD): −30.7
Change from Baseline in PSSD Symptom Score, LSMean (Week 12, 25 mg QD): −25.8
Change from Baseline in PSSD Sign Score, Mean (Week 12, 50 mg QD): −42.5
Change from Baseline in PSSD Sign Score, Median (Week 12, 50 mg QD): −46.0
Change from Baseline in PSSD Symptom Score, Mean (Week 12, 50 mg QD): −36.3
Change from Baseline in PSSD Symptom Score, Median (Week 12, 50 mg QD): −37.0
Subjects Achieving PSSD Sign Score 0 (%) (Week 12, 50 mg QD, Baseline Sign Score ≥1, N=43): (4.7%)
Subjects Achieving PSSD Symptom Score 0 (%) (Week 12, 50 mg QD, Baseline Symptom Score ≥1, N=42): (19.0%)
Change from Baseline in PSSD Sign Score, LSMean (Week 12, 50 mg QD): −43.0
Change from Baseline in PSSD Symptom Score, LSMean (Week 12, 50 mg QD): −35.7
Change from Baseline in PSSD Sign Score, Mean (Week 12, 100 mg BID): −49.9
Change from Baseline in PSSD Sign Score, Median (Week 12, 100 mg BID): −53.0
Change from Baseline in PSSD Symptom Score, Mean (Week 12, 100 mg BID): −42.3
Change from Baseline in PSSD Symptom Score, Median (Week 12, 100 mg BID): −41.0
Subjects Achieving PSSD Sign Score 0 (%) (Week 12, 100 mg BID, Baseline Sign Score ≥1, N=42): (11.9%)
Subjects Achieving PSSD Symptom Score 0 (%) (Week 12, 100 mg BID, Baseline Symptom Score ≥1, N=42): (26.2%)
Change from Baseline in PSSD Sign Score, LSMean (Week 12, 100 mg BID): −48.8
Change from Baseline in PSSD Symptom Score, LSMean (Week 12, 100 mg BID): −39.5
Change from Baseline in PSSD Sign Score, Mean (Week 12, 100 mg QD): −39.1
Change from Baseline in PSSD Sign Score, Median (Week 12, 100 mg QD): −45.0
Change from Baseline in PSSD Symptom Score, Mean (Week 12, 100 mg QD): −27.9
Change from Baseline in PSSD Symptom Score, Median (Week 12, 100 mg QD): −27.0
Subjects Achieving PSSD Sign Score 0 (%) (Week 12, 100 mg QD, Baseline Sign Score ≥1, N=43): (7.0%)
Subjects Achieving PSSD Symptom Score 0 (%) (Week 12, 100 mg QD, Baseline Symptom Score ≥1, N=43): (20.9%)
Change from Baseline in PSSD Sign Score, LSMean (Week 12, 100 mg QD): −42.2
Change from Baseline in PSSD Symptom Score, LSMean (Week 12, 100 mg QD): −34.7
Change from Baseline in PSSD Sign Score, Mean (Week 16, 25 mg BID): −41.8
Change from Baseline in PSSD Sign Score, Median (Week 16, 25 mg BID): −36.5
Change from Baseline in PSSD Symptom Score, Mean (Week 16, 25 mg BID): −34.0
Change from Baseline in PSSD Symptom Score, Median (Week 16, 25 mg BID): −28.0
Subjects Achieving PSSD Sign Score 0 (%) (Week 16, 25 mg BID, Baseline Sign Score ≥1, N=41): (9.8%)
Subjects Achieving PSSD Symptom Score 0 (%) (Week 16, 25 mg BID, Baseline Symptom Score ≥1, N=41): (17.1%)
Change from Baseline in PSSD Sign Score, LSMean (Week 16, 25 mg BID): −40.9
Change from Baseline in PSSD Symptom Score, LSMean (Week 16, 25 mg BID): −32.7
Change from Baseline in PSSD Sign Score, Mean (Week 16, 25 mg QD): −38.6
Change from Baseline in PSSD Sign Score, Median (Week 16, 25 mg QD): −43.0
Change from Baseline in PSSD Symptom Score, Mean (Week 16, 25 mg QD): −35.8
Change from Baseline in PSSD Symptom Score, Median (Week 16, 25 mg QD): −34.0
